# Assay results published in patent publication US20050267085A1, “Combined therapy for the treatment of Parkinson's disease” (UNIVERSITE LAVAL, priority 2004, published 2005).
# Assays:
# [1] = test system: hemiparkinsonian MPTP-monkeys; assay: Ipsilateral and contralateral circling behavior in hemiparkinsonian MPTP-monkeys; assay type: in vivo, macaca fasicularis
# Description: (§1) Six hemiparkinsonian ovariectomized female macaca fasicularis monkeys weighing 2.8-6.5 kg were used in this experiment. During induction of the parkinsonian syndrome, they received 1-methyl-4-phenyl-1,2,3,6-tetrahydropyridine (MPTP, 3 mg) via an Alzet pump during a period of 1-2 weeks according to the monkey. The procedure consisted of putting the pump in the left substantia nigra and the MPTP infused lesioned the dopaminergic cells. The animals were used at least 5 months after the induction of their hemiparkinsonian state at which time they had stabilized. For a further experimentation, 6 bilaterally-lesioned parkinsonian macaca fasicularis monkeys were used. The induction of the parkinsonian syndrome was performed according to the above-described methodology, except that the Alzet pump was installed so as to lesion dopaminergic cells of the substantia nigra in both brain hemispheres.
# (§2) To determine the effect of levodopa, DHEA or combination thereof on parkinsonian monkeys, ipsilateral and contralateral circling was monitored in hemiparkinsonian monkeys while Parkinsonian score was determined in bilaterally-lesion parkinsonian monkeys. Hemiparkinsonian monkeys turn towards the ipsilateral side of the lesion (to the left) under basal conditions and upon dopaminergic stimulation this circling changes for the contralateral side (to the right). Parkinsonian score was determined in bilaterally-lesion parkinsonian monkeys according to the method known in the art. All received the same treatments and were their own controls. Monkeys were first treated with levodopa for priming until a stable antiparkinsonian behavior was observed. During the investigation of DHEA administered alone, priming of the monkeys was continued with administration of levodopa/benserazide (50/12.5 mg) given twice weekly. DHEA treatments were started on the third day after the last levodopa dose.
# (§3) DHEA was administered at different doses (1, 5, and 15 mg/kg) by nasogastric gavage (n.g.) alone and in combination (DHEA: 1, 5, 10 and 15 mg/kg n.g.) with a s.c. T.L-Dopa. Threshold doses of levodopa, that is the minimal dose to obtain contralateral circling were sought for each of the MPTP-monkeys and varied from one monkey to another from 3 to 8 mg/kg (3, 4, 4.5, 5, 5, and 8 mg/kg). Higher doses of DHEA (25-100 mg/kg) alone or with T.L-Dopa were also tested in a similar paradigm.
# Treatments were administered in the morning and each animal was recorded via a video camera system. Duration of locomotor activation lasted for 90 min for all hemiparkinsonian animals and treatments. […] Each treatment was repeated 2-3 times and averaged for each monkey.
# Experimental data was compared using an ANOVA for repeated measures followed by post-hoc pair wise comparisons with Fisher's probability of least significant difference test (PLSD). A p<0.05 was required for the results to be considered statistically significant. Statistical comparison of square root transformation of the data was used to stabilize variance when required (D. C. Montgomery (1991) Third Edition, Design and analysis of experiments. ed. Whileys and Sons pp. 216).
# [2] = test system: bilaterally-lesioned parkinsonian MPTP-monkeys; assay: Parkinsonian score and duration of levodopa effect in bilaterally-lesioned parkinsonian MPTP-monkeys; assay type: in vivo, macaca fasicularis
# Description: as §1, §2, §3
# Experimental data was compared using an ANOVA for repeated measures followed by post-hoc pair wise comparisons with Fisher's probability of least significant difference test (PLSD). A p<0.05 was required for the results to be considered statistically significant. […]
# [3] = threshold dose of levodopa alone
# [4] = DHEA 1 mg/kg n.g. added to threshold dose s.c. T.L-Dopa, compared to saline or T.L-Dopa alone
# [5] = DHEA 5, 10 and 15 mg/kg n.g. combined with T.L-Dopa, compared to saline
Structure (SMILES),"contralateral circling [1, 3]","ipsilateral circling [1, 3]","overall ipsilateral-contralateral circling [1, 3]","contralateral circling (mean/30 min) [1, 4]","contralateral circling (mean/30 min) [1, 5]",levodopa-induced locomotor activity ([1]; DHEA added to minimal threshold doses of levodopa),"contralateral circling (mean/30 min) ([1]; DHEA alone 1-15 mg/kg n.g., compared to saline treatment)","ipsilateral circling ([1]; DHEA alone or DHEA combined to T.L-Dopa, versus basal conditions or saline)",dose-response on circling behavior ([1]; DHEA alone or combined with levodopa),"Duration of the DHEA effect ([1]; DHEA alone, n.g.)","effect on levodopa-induced change in ipsilateral, contralateral and ipsilateral-contralateral circling ([1]; optimal dose of DHEA for each monkey combined with threshold levodopa)","Parkinsonian score [2, 4]","increase of duration of levodopa effect ([2]; DHEA 1 and 5 mg/kg with threshold dose of levodopa, versus levodopa alone)","Parkinsonian score [2, 5]","Parkinsonian score ([2]; DHEA alone at different doses, n.g.)"
"N[C@@H](Cc1ccc(O)c(O)c1)C(=O)O [Levodopa, L-3,4-dihydroxyphenylalanine]",increased,decreased,reducing,,,,,,,,,,,,
"C[C@]12CC[C@H](O)CC1=CC[C@@H]1[C@@H]2CC[C@]2(C)C(=O)CC[C@@H]12 [DHEA, Dehydroepiandrosterone]",,,,significantly increased,significantly increased,potentiates,significantly and similarly increased,decreased,did not produce a significant dose-response,90 min,significantly potentiated,decreased,approximately 40%,reduced,reduce
